# Reference: paper PMC12888920, “MMP-9 regulates disulphide isomerase activity of TGM2 to enhance fusion glycoprotein-mediated syncytium formation of respiratory syncytial virus” (Protein & Cell, 2025)
# Legend:
# [1] = tested on: RSV A2; experiment: Viral inhibition (FFA) in RSV A2-infected HEp-2 cells treated with TGM2 inhibitors; type: cell-based, Respiratory syncytial virus; conditions: HEp-2, RSV A2; ZED-1227 60–10, Cystamine 200–22.2, Bacitracin 500–50, E64FC26 0.2–0.05, ML359 10–1.1 µmol/L
# Protocol: (§1) Figure 7. MMP-9-mediated TGM2 cleavage potentiates RSV–host interaction. (A) Cytotoxicity profiling. Dose-response curves of TGM2 inhibitors (ZED-1227, Cystamine, Bacitracin, E64FC26, ML359) in HEp-2 cells (72 h treatment). Viability was assessed by CellTiter-Glo assay. Data normalized to untreated controls. mean ± SD, n = 3. (B) Antiviral efficacy. Viral inhibition (FFA) in RSV A2-infected HEp-2 cells treated with TGM2 inhibitors at threefold dilution gradients: ZED-1227 (60–10 µmol/L), Cystamine (200–22.2 µmol/L), Bacitracin (500–50 µmol/L), E64FC26 (0.2–0.05 µmol/L), and ML359 (10–1.1 µmol/L). DMSO as vehicle control. mean ± SD, n = 3. (C) TGM2–F protein interaction. Co-IP analysis in HEK293T cells co-expressing TGM2 and RSV F (48 h). Immunoblots were probed with anti-TGM2, anti-F, or IgG control. Blots represent three independent experiments. (D) Binding kinetics. BLI quantification of TGM2–DS-Cav1 (RSV F prefusion conformation) interaction. The results represent three biological replicates. (E) Ternary complex formation. Co-IP of MMP-9-TGM2-F complex in HEK293T cells (48 h). GAPDH as loading control. Below the asterisk represents the objective band. Blots represent three independent experiments. (F) Impairing MMP-9/TGM2/RSV-F complex inhibits RSV infection. […] (G) Proteolytic enhancement. MMP-9-cleaved TGM2 (TGM2-44) enhances protein disulfide isomerase (PDI) activity was measured using reduced DS-Cav1. mean ± SD, n = 3. (H) Truncation functional analysis. Viral titers (FFA) in HEp-2 cells expressing MMP-9, TGM2, or cleavage fragments (TGM2-44/41) post RSV infection (MOI = 1, 72 hpi). mean ± SD, n = 3. (I) Syncytium rescue. Syncytia area quantification in TGM2 truncation-expressing cells (ImageJ software). mean ± SD, n = 3. (J) Subcellular redistribution. Confocal microscopy of HEp-2 cells co-expressing TGM2 truncations (HA/FLAG-tagged) and RSV F (72 hpi). Scale bar: 10 µm. Images represent three biological replicates. (K) F protein expression. Fluorescence intensity quantification of RSV F in (J) (ImageJ software). mean ± SD, n = 3. (L) Fusion competence assay. Syncytium formation in HEK293T cells co-expressing TGM2 truncations and RSV F/F-C37S/C69S mutants (48 h). Scale bar: 10 µm. Images represent three biological replicates. (M) Mutant validation. RSV F expression levels in (L) were quantified by ImageJ software. mean ± SD, n = 3. The results are representatively shown with three random experiments. The error bars indicate the mean ± SD of three technical replicates (n = 3). Statistical analysis: one-way ANOVA with Dunnett’s post hoc test (B, F, G, H, I, K, M); unpaired two-tailed Student’s t-test (F, H, I, K, M). *P < 0.05, **P < 0.01, ***P < 0.001; ns, not significant.
# [2] = Cell viability assay (CellTiter-Glo) in HEp-2 cells; type: cell-based; conditions: human
# Protocol: as §1, with “Statistical analysis: one-way ANOVA with Dunnett’s post hoc test (B, F, G, H, I, K, M); unpaired two-tailed Student’s t-test (F, H, I, K, M). *P < 0.05, **P < 0.01, ***P < 0.001; ns, not significant.” left out
# (§2) (B-C) Cytotoxicity profiles in HEp-2 (B) and HBEC (C) cells. […] Viability was assessed using the CellTiter-Glo assay (G7570, Promega). […]
# (§3) 95 Cell viability was evaluated using a CellTiter -Glo® Luminescent Cell Viability Assay 96 kit (G7571, Promega) according to the manufacturer’s instructions. […]
# [3] = tested on: RSV B18537; experiment: Antiviral activity (FFA) against RSV B18537 in HEp-2 cells; type: cell-based; conditions: human respiratory syncytial virus
# From the text: (§4) Figure 1. Antiviral activity of metalloproteinase inhibitors against RSV in vitro. (A) Experimental workflow for RSV A2 infection and compound treatment. (B) High-throughput screening of TargetMol L1100 library (246 host protease inhibitors targeting 10 pathways: MMPs, caspases, proteasomes, apoptosis regulators, cysteine proteases, gamma-secretase, autophagy modulators, serine proteases, DPP-4, and beta-secretase) using concentration gradients (1, 5, 10 µmol/L). HEp-2 cells were pretreated with compounds for 1 hour prior to RSV A2 infection (MOI = 0.1). Plaque formation was quantified at 72 hours post-infection (hpi) and normalized to DMSO controls. […] (G) Target overlap analysis of four MMP-9-targeting inhibitors. (H) Viral titers in supernatants of HEp-2 cells transfected with MMP-specific siRNAs (24 h) followed by RSV A2 infection (MOI = 1, 72 h). mean ± SD, n = 3. The results are representatively shown with three random experiments. The error bars indicate the mean ± SD of three technical replicates (n = 3). Statistical significance was determined by one-way ANOVA with Dunnett’s post hoc test: *P < 0.05, ***P < 0.001; ns, not significant. […]
# (§5) 109 111813, MCE) and 0.1% DMSO vehicle. Primary hits (>50% CPE reduction + not
# (§6) 110 overtly cytotoxic) underwent dose -response validation (0.00004 –10 μM) to generate
# (§7) 111 EC50 curves (GraphPad Prism 8.0) .
# (§8) 112 Evaluation of in vitro antiviral activity
# (§9) 113 Compound inhibitor treatments: HEp-2 cells (1.3×10⁴/well) or HBEC (1.8×10⁴/well)
# (§10) 114 were pretreated with test compounds for 1 h before RSV A2/B18537 infection
# (§11) 115 (MOI=0.1 or 0.3). Viral inhibition was quantified at 72 hpi via FFA. Fixed cells (4%
# (§12) 116 PFA) were permeabilized (0.3% Triton X-100), stained with anti-RSV-FITC
# (§13) 118 Fluorescent foci were normalized to nuclear counts (ImageJ software) for EC 50
# (§14) 119 determination via four-parameter logistic regression (GraphPad Prism 8.0). Data
# (§15) 120 represent triplicate experiments. […]
# [4] = tested on: RSV A2; experiment: Antiviral activity (FFA) against RSV A2 in HEp-2 cells; type: cell-based; conditions: human respiratory syncytial virus
# From the text: as §4, §6, §7, §8, §9, §10, §11, §12, §13, §14, §15
# [5] = tested on: RSV B18537; experiment: Antiviral activity (FFA) against RSV B18537 in HBEC; type: cell-based; conditions: human respiratory syncytial virus
# From the text: as §4, §8, §9, §10, §11, §12, §13, §14, §15
# [6] = tested on: RSV A2; experiment: High-throughput antiviral screening of protease inhibitor library against RSV A2 in HEp-2 cells; type: cell-based, Respiratory syncytial virus; conditions: RSV A2, MOI = 0.1, 1, 5, 10 µmol/L, 72 hpi
# From the text: Figure 1. Antiviral activity of metalloproteinase inhibitors against RSV in vitro. (A) Experimental workflow for RSV A2 infection and compound treatment. (B) High-throughput screening of TargetMol L1100 library (246 host protease inhibitors targeting 10 pathways: MMPs, caspases, proteasomes, apoptosis regulators, cysteine proteases, gamma-secretase, autophagy modulators, serine proteases, DPP-4, and beta-secretase) using concentration gradients (1, 5, 10 µmol/L). HEp-2 cells were pretreated with compounds for 1 hour prior to RSV A2 infection (MOI = 0.1). Plaque formation was quantified at 72 hours post-infection (hpi) and normalized to DMSO controls. […] (G) Target overlap analysis of four MMP-9-targeting inhibitors. (H) Viral titers in supernatants of HEp-2 cells transfected with MMP-specific siRNAs (24 h) followed by RSV A2 infection (MOI = 1, 72 h). mean ± SD, n = 3. The results are representatively shown with three random experiments. The error bars indicate the mean ± SD of three technical replicates (n = 3). Statistical significance was determined by one-way ANOVA with Dunnett’s post hoc test: *P < 0.05, ***P < 0.001; ns, not significant.
# 104 High-throughput antiviral screening
# 105 The L1100 protease inhibitor library (246 compounds; L1100, TargetMol) was
# 106 screened against RSV A2 in HEp -2 cells. Compounds (10 mM DMSO stocks) were
# 107 robotically dispensed 1 h pre -infection at final concentrations of 1, 5, 10 μM.
# 108 Infection rates (72 hpi) were normalized to PC786 (1 μM; positive control; HY -
# as §5, §6, §7, §8, §9, §10, §11, §12, §13, §14, §15
# [7] = tested on: RSV A2; experiment: Antiviral activity (FFA) against RSV A2 in primary human bronchial epithelial cells (HBEC); type: cell-based; conditions: human respiratory syncytial virus, Epithelial cell
# From the text: as §4, §8, §9, §10, §11, §12, §13, §14, §15
# [8] = tested on: HEp-2 cells; experiment: Cell viability assay (CellTiter-Glo) in HEp-2 cells; type: cell-based
# Protocol: as §1, with “Statistical analysis: one-way ANOVA with Dunnett’s post hoc test (B, F, G, H, I, K, M); unpaired two-tailed Student’s t-test (F, H, I, K, M). *P < 0.05, **P < 0.01, ***P < 0.001; ns, not significant.” left out
# as §2, §3
# [9] = target: RSV F protein (DS-Cav1); experiment: Biolayer interferometry, TGM2 binding to RSV F protein (DS-Cav1); set-up: species or system Respiratory syncytial virus; conditions: BLI, biotinylated DS-Cav1 on SA biosensors
# Protocol: Figure 7. MMP-9-mediated TGM2 cleavage potentiates RSV–host interaction. (A) Cytotoxicity profiling. Dose-response curves of TGM2 inhibitors (ZED-1227, Cystamine, Bacitracin, E64FC26, ML359) in HEp-2 cells (72 h treatment). Viability was assessed by CellTiter-Glo assay. Data normalized to untreated controls. mean ± SD, n = 3. (B) Antiviral efficacy. Viral inhibition (FFA) in RSV A2-infected HEp-2 cells treated with TGM2 inhibitors at threefold dilution gradients: ZED-1227 (60–10 µmol/L), Cystamine (200–22.2 µmol/L), Bacitracin (500–50 µmol/L), E64FC26 (0.2–0.05 µmol/L), and ML359 (10–1.1 µmol/L). DMSO as vehicle control. mean ± SD, n = 3. (C) TGM2–F protein interaction. […] BLI quantification of TGM2–DS-Cav1 (RSV F prefusion conformation) interaction. […] MMP-9-cleaved TGM2 (TGM2-44) enhances protein disulfide isomerase (PDI) activity was measured using reduced DS-Cav1. mean ± SD, n = 3. […] Syncytia area quantification in TGM2 truncation-expressing cells (ImageJ software). mean ± SD, n = 3. […] Fluorescence intensity quantification of RSV F in (J) (ImageJ software). mean ± SD, n = 3. […] RSV F expression levels in (L) were quantified by ImageJ software. mean ± SD, n = 3. […]
# 271 TGM2) were quantified using a Sartorius Octet R4 system. […]
# 275 equilibration. MMP-9 (MCE) binding was assessed across two concentration ranges: […]
# 281 (Sartorius) at 20 µg/mL. TGM2 binding was evaluated across 0 –100 µM (7 […]
# [10] = HEp-2, RSV B18537, MOI = 0.1, 72 hpi, read-out: EC50
# [11] = HEp-2, RSV A2, MOI = 0.1, 72 hpi, read-out: EC50
# [12] = HBEC, RSV B18537, MOI = 0.3, 72 hpi, read-out: EC50
# [13] = HBEC, RSV A2, MOI = 0.3, 72 hpi, read-out: EC50
molecule,measurement,setting,value
NCCSSCCN [Cystamine],inhibition of RSV replication (antiviral efficacy),[1],did not inhibit RSV replication
same,CC50 at 72 h,[2],387000 nM
C[C@H]1c2cccc(O)c2C(=O)C2=C(O)[C@]3(O)C(=O)C(C(N)=O)=C(O)[C@@H](N(C)C)[C@@H]3[C@@H](O)[C@@H]21 [Doxycycline],EC50,[3]; [10],727 nM
same,EC50,[4]; [11],846 nM
same,EC50,[5]; [12],811 nM
same,inhibition of RSV infection in HEp-2 cells,[6],significant dose-dependent inhibition
same,EC50,[7]; [13],1300 nM
CCCCCCCC/C=C1\C=C(C(F)(F)F)c2cc(O)c(O)cc21 [E64FC26],inhibition of RSV replication (antiviral efficacy),[1],strong antiviral efficacy
same,CC50,[8],800 nM
CC(C)=CCc1c(O)c(CC=C(C)C)c2oc3c(O)ccc(O)c3c(=O)c2c1O [Gartanin],EC50,[3]; HEp-2,738 nM
same,EC50,[4]; HEp-2,726 nM
same,EC50,[5],733 nM
same,inhibition of RSV infection in HEp-2 cells,[6],significant dose-dependent inhibition
same,EC50,[7],625 nM
CCOC(=O)C1(CCOc2ccccc2)CCN(Cc2ccc(O)c(Cl)c2)CC1 [ML359],inhibition of RSV replication (antiviral efficacy),[1],strong antiviral efficacy
same,CC50,[8],26100 nM
Cc1cnc(N2CC3(CCOCC3)C2)c(C(=O)Nc2ccc(C(=O)N3CCc4cc(C(=O)Nc5c(C)cccc5F)sc4-c4ccccc43)cc2)c1 [PC786],EC50,[3]; [10],32.9 nM
same,EC50,[4]; [11],2.6 nM
same,EC50,[5]; [12],47.1 nM
same,EC50,[7]; [13],45.5 nM
CCC(CC)CNC(=O)Cn1cccc(NC(=O)[C@H](CC/C=C/C(=O)OC)NC(=O)c2cncn2C)c1=O [ZED-1227],inhibition of RSV replication (antiviral efficacy),[1],did not inhibit RSV replication
same,CC50 at 72 h,[2],78700 nM
Bacitracin,inhibition of RSV replication (antiviral efficacy),[1],strong antiviral efficacy
TGM2: recombinant transglutaminase 2 protein used in BLI,Kd,[9],6310 nM
